# Tested on: organophosphorous agent resistant two-spotted spider mites
# Test: Effect on Two-spotted Spider Mite (spray on kidney bean leaves)
# Assay type: in vivo
# Conditions: 125 ppm, water dispersible powder of Formulation Example 1 sprayed, 17 female adults, 25° C., 65% humidity, 3 days
# From the text: Effect on Two-spotted Spider Mite
# 17 female adults of organophosphorous agent resistant two-spotted spider mites were inoculated onto the first leaves of kidney beans seeded onto 3.5 inch pots and germinated 7 to 10 days before, onto which each of liquid agents, diluted with water so as to adjust the respective concentration of the chemical compounds to 125 ppm according to the formulation of the water dispersible powder shown in the aforementioned Formulation Example 1, was sprayed. After they were left in a thermostatic chamber at 25° C. in 65% humidity for 3 days, the rate of killed adults was investigated. The examination was repeated twice. As the results, the following chemical compounds killed 100% of the adults.
row,Compound,rate of killed adults [%]
1,CCCOC(=O)c1cc(C(F)(F)F)ccc1O[C@@H]1[C@@H]2CC[C@H]1CN(c1ccc(C(F)(F)F)cn1)C2 [5-244],100
2,FC(F)(F)c1ccc(N2CC3CCC(C2)C3Oc2ccc(C(F)(F)F)cc2OCc2cccs2)nc1 (centres unmarked) [5-209],100
3,FC(F)(F)c1ccc(N2CC3CCC(C2)C3Oc2ccc(C(F)(F)F)cc2OCc2ccsc2)nc1 (centres unmarked) [5-208],100
4,CS(=O)(=O)Oc1cc(C(F)(F)F)ccc1OC1CC2CCC(C1)N2c1ccc(C(F)(F)F)cn1 (centres unmarked) [2-151],100
5,CCC(O)c1cc(C(F)(F)F)ccc1OC1CCN(c2ccc(C(F)(F)F)cn2)CC1 (centres unmarked) [1-67],100
6,CC(Cl)COc1cc(C(F)(F)F)ccc1OC1C2CCC1CN(c1ccc(C(F)(F)F)cn1)C2 (centres unmarked) [5-138],100
7,C=C=COc1cc(C(F)(F)F)ccc1OC1CCN(c2ccc(C(F)(F)F)cn2)CC1 [1-143],100
8,COCCc1cc(C(F)(F)F)ccc1O[C@@H]1[C@@H]2CC[C@H]1CN(c1ccc(C(F)(F)F)cn1)C2 [5-246],100
9,O=C(OCC(F)(F)F)c1cc(C(F)(F)F)ccc1OC1CC2CCC(C1)N2c1ccc(C(F)(F)F)cn1 (centres unmarked) [2-240],100
10,CCCSc1cc(C(F)(F)F)ccc1OC1CC2CCC(C1)N2c1ccc(C(F)(F)F)cn1 (centres unmarked) [2-165],100
11,CC1COC(c2cc(C(F)(F)F)ccc2OC2CC3CCC(C2)N3c2ccc(C(F)(F)F)cn2)=N1 (centres unmarked) [2-199],100
12,CCCOc1cc(C(F)(F)F)ccc1OC1CC2CCC(C1)N2c1ccc(Br)cn1 (centres unmarked) [2-86],100
13,O=C(OC1CCCC1)c1cc(C(F)(F)F)ccc1OC1CC2CCC(C1)N2c1ccc(C(F)(F)F)cn1 (centres unmarked) [2-223],100
14,"CCCOc1cc(C(F)(F)F)ccc1O[C@H]1C[C@H]2CC[C@@H](C1)N2c1ccc(C(F)(F)F)cn1 [2-82, 3α-[2-propoxy-4-(trifluoromethyl)phenoxy]-8-[5-(trifluoromethyl)-2-pyridyl]-8-azabicyclo[3.2.1]octane]",100
15,FC(F)(F)c1ccc(N2CC3CCC(C2)C3Oc2ccc(C(F)(F)F)cc2C2CC=CO2)nc1 (centres unmarked) [5-235],100
16,COCC(C)OC(=O)c1cc(C(F)(F)F)ccc1OC1CC2CCC(C1)N2c1ccc(C(F)(F)F)cn1 (centres unmarked) [2-234],100
17,FC(F)COc1cc(C(F)(F)F)ccc1OC1CC2CCC(C1)N2c1ccc(C(F)(F)F)cn1 (centres unmarked) [2-246],100
18,CON=Cc1cc(C(F)(F)F)ccc1OC1CC2CCC(C1)N2c1ccc(C(F)(F)F)cn1 (centres unmarked) [2-211],100
19,CCCNc1cc(C(F)(F)F)ccc1OC1CCN(c2ccc(C(F)(F)F)cn2)CC1 [1-173],100
20,CCCOc1cc(C#N)ccc1O[C@@H]1[C@@H]2CC[C@H]1CN(c1ccc(C(F)(F)F)cn1)C2 [5-102],100
21,CON=C(C)COc1cc(C(F)(F)F)ccc1OC1C2CCC1CN(c1ccc(C(F)(F)F)cn1)C2 (centres unmarked) [5-184],100
22,CC#CCOc1cc(C(F)(F)F)ccc1OC1C2CCC1CN(c1ccc(C(F)(F)F)cn1)C2 (centres unmarked) [5-232],100
23,CCCN(C)c1cc(C(F)(F)F)ccc1OC1C2CCC1CN(c1ccc(C(F)(F)F)cn1)C2 (centres unmarked) [5-191],100
24,FC(F)(F)c1ccc(N2C[C@H]3CC[C@@H](C2)[C@@H]3Oc2ccc(C(F)(F)F)cc2OC2CC2(Cl)Cl)nc1 (some centres unmarked) [5-104],100

row,Compound,rate of killed adults [%]
1,Cc1ccc(OC2CCN(c3ccc(C(F)(F)F)cn3)CC2)c(C)c1 [1-44],100
2,CCON=Cc1cc(C(F)(F)F)ccc1OC1CC2CCC(C1)N2c1ccc(C(F)(F)F)cn1 (centres unmarked) [2-203],100
3,CC=CCOc1cc(C(F)(F)F)ccc1OC1CC2CCC(C1)N2c1ccc(C(F)(F)F)cn1 (mixture of isomers) [2-145],100
4,CCNc1cc(C(F)(F)F)ccc1OC1CCN(c2ccc(C(F)(F)F)cn2)CC1 [1-172],100
5,CC(F)COc1cc(C(F)(F)F)ccc1OC1CC2CCC(C1)N2c1ccc(C(F)(F)F)cn1 (centres unmarked) [2-181],100
6,COCOCc1cc(O[C@@H]2[C@@H]3CC[C@H]2CN(c2ccc(C(F)(F)F)cn2)C3)ccc1C(F)(F)F [5-70],100
7,COCOCCOc1cc(C(F)(F)F)ccc1OC1CCN(c2ccc(C(F)(F)F)cn2)CC1 [1-117],100
8,CC(=O)OC(CC(C)C)c1cc(C(F)(F)F)ccc1O[C@@H]1[C@@H]2CC[C@H]1CN(c1ccc(C(F)(F)F)cn1)C2 (some centres unmarked) [5-258],100
9,FC(F)(F)c1ccc(N2C3CCC2CC(Oc2ccc(C(F)(F)F)cc2OC2CCOC2)C3)nc1 (centres unmarked) [2-179],100
10,FC(F)(F)c1ccc(N2CCC(Oc3ccc(Cl)cc3)CC2)nc1 [1-10],100
11,CCOC(C)COc1cc(C(F)(F)F)ccc1OC1CC2CCC(C1)N2c1ccc(C(F)(F)F)cn1 (centres unmarked) [2-175],100
12,CCCCC(O)c1cc(C(F)(F)F)ccc1OC1C2CCC1CN(c1ccc(C(F)(F)F)cn1)C2 (centres unmarked) [5-238],100
13,CCCOc1cc(C(F)(F)F)ccc1O[C@@H]1[C@@H]2CC[C@H]1CN(c1ccc(C(F)F)cn1)C2 [5-99],100
14,CCCN(CCC)c1cc(C(F)(F)F)ccc1OC1CCN(c2ccc(C(F)(F)F)cn2)CC1 [1-174],100
15,CC(C)C(C)OC(=O)c1cc(C(F)(F)F)ccc1OC1CC2CCC(C1)N2c1ccc(C(F)(F)F)cn1 (centres unmarked) [2-232],100
16,COCCOc1cc(C(F)(F)F)ccc1O[C@@H]1[C@@H]2CC[C@H]1CN(c1ccc(C#N)cn1)C2 [5-125],100
17,FC(F)(F)c1ccc(N2CC3CCC(C2)C3Oc2ccc(C(F)(F)F)cc2OCCCl)nc1 (centres unmarked) [5-147],100
18,"COc1cc(C(F)(F)F)ccc1OC1CC2CCC(C1)N2c1ccc(C(F)(F)F)cn1 (stereo not drawn) [2-77, 3α-[2-methoxy-4-(trifluoromethyl)phenoxy]-8-[5-(trifluoromethyl)-2-pyridyl]-8-azabicyclo[3.2.1]octane]",100
19,COCCOc1cc(C(F)(F)F)ccc1OC1CCN(c2ccc(C(F)(F)F)cn2)CC1 [1-115],100
20,Cc1cc(F)ccc1OC1CCN(c2ccc(C(F)(F)F)cn2)CC1 [1-48],100
21,COc1cc(C(F)(F)F)ccc1O[C@@H]1[C@@H]2CC[C@H]1CN(c1ccc(C(F)(F)F)cn1)C2 [5-89],100
22,CC(C)(C)C(=O)Oc1cc(C(F)(F)F)ccc1OC1CC2CCC(C1)N2c1ccc(C(F)(F)F)cn1 (centres unmarked) [2-150],100
23,CC=NOc1cc(C(F)(F)F)ccc1OC1CC2CCC(C1)N2c1ccc(C(F)(F)F)cn1 (mixture of isomers) [2-213],100

# Reference: patent US8101768B2, “Cyclic amine compound and pest control agent” (Nippon Soda Co., Ltd., priority 2004, dated 2012)
